{"source": "patent US20100075907A1", "about": "“NEUROMEDIN U RECEPTOR AGONISTS AND USES THEREOF” (priority 2006, published 2010)", "molecular_target": "hNMUR2 (Homo sapiens, UniProt Q9GZQ4)", "sequence (Q9GZQ4 whole entry)": "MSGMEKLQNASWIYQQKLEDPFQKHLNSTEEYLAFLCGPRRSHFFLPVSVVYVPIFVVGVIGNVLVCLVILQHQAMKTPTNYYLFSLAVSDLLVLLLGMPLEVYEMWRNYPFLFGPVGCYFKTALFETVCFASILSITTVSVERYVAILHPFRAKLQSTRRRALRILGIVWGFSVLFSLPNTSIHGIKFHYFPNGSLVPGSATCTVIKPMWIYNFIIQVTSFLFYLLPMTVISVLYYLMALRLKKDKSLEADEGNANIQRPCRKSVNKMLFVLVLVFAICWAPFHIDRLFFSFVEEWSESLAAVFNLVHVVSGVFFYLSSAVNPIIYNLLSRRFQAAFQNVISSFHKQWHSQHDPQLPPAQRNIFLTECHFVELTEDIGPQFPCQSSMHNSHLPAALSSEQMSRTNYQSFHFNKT", "assay": "125I-hNMU-25 binding assay, human NMUR2 membranes", "design": "expressed in transfected cells; host or cells: HEK-293 FLP-In cells (pcDNA5); HEK-293/aeq17 lines (pcDNA3.1) were also made; % inhibition of NMU-25 binding / % Activity: concentration or dose not given beside the values", "protocol": "Confluent cell monolayers expressing NMU receptors (the HEK cells described above) were harvested with phosphate buffered saline, collected by centrifugation, and resuspended in membrane buffer (50 mM TrisCl pH 7.4, 5 mM MgCl2, 1× Protease Inhibitor Cocktail, 10 μM phosphoramidon). After the cell pellet was homogenized, the solution was centrifuged at 18,000 rpm for 20 minutes at 4° C. The pellet was resuspended in membrane buffer to yield a final concentration of 0.5-5 μg/μL of membrane and stored at −80° C.\nExperiments were performed in assay buffer (25 mM TrisCl, pH 7.4, 10 mM MgCl2, 2 mM EDTA, 1× Protease Inhibitor Cocktail, 100 μg/mL Bacitricin, 10 μM phosphoramidon) in 200 μL volumes in a 96-well format using 2-5 μg of membrane and 0.1 nM ^125I-hNMU-25 (about 12,000 cpm/well). For non-specific binding, 1 μM hNMU-25 was added. About 5 μL of peptides were added to measure antagonist activity, and the entire reaction was incubated at room temperature with shaking for 80 minutes. The reaction was terminated by rapid filtration through 0.3% poly-ethylenimine presoaked Millipore 96-well filter plates and washed with ice-cold buffer (5 mM TrisCl pH 7.4, 10 mM MgCl2, 2.5 mM EDTA, 0.04% Triton X-100). Plates were air-dried overnight at room temperature and recovered radioactivity was determined by standard scintillation counting. IC50 values were determined using GraphPad Prism software.\nConcentration-response curves and radioligand-binding data were fitted using Prism (GraphPad Software). Results are summarized below in Tables 8 and 9.", "note": "Non-standard residues stand in square brackets, D forms with d. Residues, ends and D or L forms follow the SMILES beside them. No end group written: not given here. hArg = N=C(N)NCCCC[C@H](N)C(=O)O; dNle = CCCC[C@@H](N)C(=O)O", "data": [{"molecule": "H-YFGWRPRN-NH2 [Agonist C]", "values": [{"measurement": "% Activity", "setting": "Table 8, HEK-hR2, binding", "value": 0, "unit": "%"}, {"measurement": "IC50", "setting": "Table 8, HEK-hR2, binding", "value": "> 1000", "unit": "nM"}]}, {"molecule": "C[C@@H](NC(=O)[C@H](Cc1ccccc1)NC(=O)[C@@H](N)Cc1ccc(O)cc1)C(=O)N[C@@H](Cc1c[nH]c2ccccc12)C(=O)N[C@@H](CCCNC(=N)N)C(=O)N1CCC[C@H]1C(=O)N[C@@H](CCCNC(=N)N)C(=O)N[C@@H](CC(N)=O)C(N)=O", "note": "[Agonist D, YF-(D-A)-WRPRN-CONH2] (H-YF[dA]WRPRN-NH2; N-terminus assumed)", "values": [{"measurement": "% Activity", "setting": "Table 8, HEK-hR2, binding", "value": 0, "unit": "%"}, {"measurement": "IC50", "setting": "Table 8, HEK-hR2, binding", "value": "> 1000", "unit": "nM"}]}, {"molecule": "CC(C)C[C@H](NC(=O)[C@H](Cc1c[nH]c2ccccc12)NC(=O)[C@@H](N)Cc1ccccc1)C(=O)N[C@@H](Cc1ccccc1)C(=O)N[C@@H](CCCNC(=N)N)C(=O)N1CCC[C@H]1C(=O)N[C@@H](CCCCNC(=N)N)C(=O)N[C@@H](CC(N)=O)C(N)=O", "note": "[Agonist I, FWLFRP-(Harg)-N-CONH2] (H-FWLFRP[hArg]N-NH2)", "values": [{"measurement": "% Activity", "setting": "Table 9, HEK-hR2, binding", "value": 90, "unit": "%"}]}, {"molecule": "CC(C)C[C@H](NC(=O)[C@H](Cc1c[nH]c2ccccc12)NC(=O)[C@H](Cc1ccccc1)NC(=O)CNC(=O)[C@H](CCCNC(=N)N)NC(=O)[C@H](CO)NC(=O)[C@H](CCC(N)=O)NC(=O)[C@H](CO)NC(=O)[C@H](C)NC(=O)[C@H](Cc1ccccc1)NC(=O)[C@@H]1CCCN1C(=O)[C@H](CO)NC(=O)[C@H](CCC(N)=O)NC(=O)[C@H](Cc1ccccc1)NC(=O)[C@H](CCC(=O)O)NC(=O)[C@H](CCC(=O)O)NC(=O)[C@H](CC(=O)O)NC(=O)[C@@H](NC(=O)[C@H](CCCNC(=N)N)NC(=O)[C@@H](N)Cc1ccccc1)C(C)C)C(=O)N[C@@H](Cc1ccccc1)C(=O)N[C@@H](CCCNC(=N)N)C(=O)N1CCC[C@H]1C(=O)N[C@@H](CCCCNC(=N)N)C(=O)N[C@@H](CC(N)=O)C(N)=O", "note": "[Agonist O] (H-FRVDEEFQSPFASQSRGFWLFRP[hArg]N-NH2; N-terminus assumed)", "values": [{"measurement": "% Activity", "setting": "Table 9, HEK-hR2, binding", "value": 92, "unit": "%"}, {"measurement": "IC50", "setting": "Table 9, HEK-hR2, binding", "value": 3, "unit": "nM"}]}, {"molecule": "CC(=O)N[C@@H](Cc1ccccc1)C(=O)N[C@H](CC(C)C)C(=O)N[C@@H](Cc1c[nH]c2ccccc12)C(=O)N[C@@H](CCCNC(=N)N)C(=O)N1CCC[C@H]1C(=O)N[C@@H](CCCNC(=N)N)C(=O)N[C@@H](CC(N)=O)C(N)=O", "note": "[Agonist E, Ac-F-(D-L)-WRPRN-CONH2] (Ac-F[dL]WRPRN-NH2)", "values": [{"measurement": "% Activity", "setting": "Table 8, HEK-hR2, binding", "value": 5, "unit": "%"}, {"measurement": "IC50", "setting": "Table 8, HEK-hR2, binding", "value": "> 1000", "unit": "nM"}]}, {"molecule": "CC(C)C[C@H](NC(=O)[C@H](Cc1c[nH]c2ccccc12)NC(=O)[C@@H](N)Cc1ccccc1)C(=O)N[C@@H](Cc1ccccc1)C(=O)N[C@@H](CCCNC(=N)N)C(=O)N[C@@H](C)C(=O)N[C@@H](CCCCNC(=N)N)C(=O)N[C@@H](CC(N)=O)C(N)=O", "note": "[Agonist J, FWLFRA-(Harg)-N-CONH2] (H-FWLFRA[hArg]N-NH2)", "values": [{"measurement": "% Activity", "setting": "Table 9, HEK-hR2, binding", "value": 63, "unit": "%"}, {"measurement": "IC50", "setting": "Table 9, HEK-hR2, binding", "value": 150, "unit": "nM"}]}, {"molecule": "CCCC[C@@H](NC(=O)[C@H](CCCNC(=N)N)NC(=O)[C@H](C)NC(=O)[C@H](CCCNC(=N)N)NC(=O)[C@H](Cc1ccccc1)NC(=O)[C@H](CC(C)C)NC(=O)[C@H](Cc1ccccc1)NC(=O)[C@@H](N)Cc1c[nH]c2ccccc12)C(N)=O", "note": "[Agonist K, WFLFRAR-(D-Nle)-CONH2] (H-WFLFRAR[dNle]-NH2)", "values": [{"measurement": "% Activity", "setting": "Table 9, HEK-hR2, binding", "value": 100, "unit": "%"}]}, {"molecule": "H-FRVDEEFQSPFASQSRGYFWRPRN-NH2 [Agonist G]", "values": [{"measurement": "% Activity", "setting": "Table 8, HEK-hR2, binding", "value": 33, "unit": "%"}]}, {"molecule": "CC(C)C[C@H](NC(=O)[C@H](Cc1c[nH]c2ccccc12)NC(=O)[C@H](Cc1ccccc1)NC(=O)CNC(=O)[C@H](CCCNC(=N)N)NC(=O)[C@H](CO)NC(=O)[C@H](CCC(N)=O)NC(=O)[C@H](CO)NC(=O)[C@H](C)NC(=O)[C@H](Cc1ccccc1)NC(=O)[C@@H]1CCCN1C(=O)[C@H](CO)NC(=O)[C@H](CCC(N)=O)NC(=O)[C@H](Cc1ccccc1)NC(=O)[C@H](CCC(=O)O)NC(=O)[C@H](CCC(=O)O)NC(=O)[C@H](CC(=O)O)NC(=O)[C@@H](NC(=O)[C@H](CCCNC(=N)N)NC(=O)[C@@H](N)Cc1ccccc1)C(C)C)C(=O)N[C@@H](Cc1ccccc1)C(=O)N[C@@H](CCCNC(=N)N)C(=O)N[C@@H](C)C(=O)N[C@@H](CCCCNC(=N)N)C(=O)N[C@@H](CC(N)=O)C(N)=O", "note": "[Agonist P] (H-FRVDEEFQSPFASQSRGFWLFRA[hArg]N-NH2; N-terminus assumed)", "values": [{"measurement": "% Activity", "setting": "Table 9, HEK-hR2, binding", "value": 81, "unit": "%"}, {"measurement": "IC50", "setting": "Table 9, HEK-hR2, binding", "value": 150, "unit": "nM"}]}, {"molecule": "YFWRPRN-NH2 [Agonist A, YFWRPRN-CONH2]", "values": [{"measurement": "% Activity", "setting": "Table 8, HEK-hR2, binding", "value": 0, "unit": "%"}, {"measurement": "IC50", "setting": "Table 8, HEK-hR2, binding", "value": "> 1000", "unit": "nM"}]}, {"molecule": "CCCC[C@@H](NC(=O)[C@H](CCCNC(=N)N)NC(=O)[C@@H]1CCCN1C(=O)[C@H](CCCNC(=N)N)NC(=O)[C@H](Cc1ccccc1)NC(=O)[C@H](CC(C)C)NC(=O)[C@H](Cc1c[nH]c2ccccc12)NC(=O)[C@H](Cc1ccccc1)NC(=O)CNC(=O)[C@H](CCCNC(=N)N)NC(=O)[C@H](CO)NC(=O)[C@H](CCC(N)=O)NC(=O)[C@H](CO)NC(=O)[C@H](C)NC(=O)[C@H](Cc1ccccc1)NC(=O)[C@@H]1CCCN1C(=O)[C@H](CO)NC(=O)[C@H](CCC(N)=O)NC(=O)[C@H](Cc1ccccc1)NC(=O)[C@H](CCC(=O)O)NC(=O)[C@H](CCC(=O)O)NC(=O)[C@H](CC(=O)O)NC(=O)[C@@H](NC(=O)[C@H](CCCNC(=N)N)NC(=O)[C@@H](N)Cc1ccccc1)C(C)C)C(N)=O", "note": "[Agonist Q] (H-FRVDEEFQSPFASQSRGFWLFRPR[dNle]-NH2)", "values": [{"measurement": "% Activity", "setting": "Table 9, HEK-hR2, binding", "value": 89, "unit": "%"}]}, {"molecule": "WALFRARN-NH2 [Agonist M]", "values": [{"measurement": "% Activity", "setting": "Table 9, HEK-hR2, binding", "value": 71, "unit": "%"}, {"measurement": "IC50", "setting": "Table 9, HEK-hR2, binding", "value": 180, "unit": "nM"}]}, {"molecule": "CC(C)C[C@@H](NC(=O)[C@H](Cc1ccccc1)NC(=O)[C@@H](N)Cc1ccc(O)cc1)C(=O)N[C@@H](Cc1c[nH]c2ccccc12)C(=O)N[C@@H](CCCNC(=N)N)C(=O)N1CCC[C@H]1C(=O)N[C@@H](CCCNC(=N)N)C(=O)N[C@@H](CC(N)=O)C(N)=O", "note": "[Agonist B, YF-(D-L)-WRPRN-CONH2] (H-YF[dL]WRPRN-NH2)", "values": [{"measurement": "% Activity", "setting": "Table 8, HEK-hR2, binding", "value": 35, "unit": "%"}, {"measurement": "IC50", "setting": "Table 8, HEK-hR2, binding", "value": "> 1000", "unit": "nM"}]}, {"molecule": "H-FRVDEEFQSPFASQSRGYFLFRPRN-NH2 [hNMU-25, reference compound]", "values": [{"measurement": "% Activity", "setting": "Table 9, HEK-hR2, binding", "value": 100, "unit": "%"}, {"measurement": "IC50", "setting": "binding, human R2", "value": 0.056, "unit": "nM"}]}, {"molecule": "CC(C)C[C@H](NC(=O)[C@H](Cc1ccccc1)NC(=O)[C@@H](N)Cc1ccc(O)cc1)C(=O)N[C@@H](Cc1ccccc1)C(=O)N[C@@H](CCCNC(=N)N)C(=O)N1CCC[C@H]1C(=O)N[C@@H](CCCNC(=N)N)C(=O)N[C@@H](CC(N)=O)C(N)=O", "note": "[NMU-8, reference compound]", "values": [{"measurement": "% Activity", "setting": "Table 9, HEK-hR2, binding", "value": 100, "unit": "%"}]}, {"molecule": "H-FWLFRARN-NH2 [Agonist L]", "values": [{"measurement": "% Activity", "setting": "Table 9, HEK-hR2, binding", "value": 100, "unit": "%"}]}, {"molecule": "Ac-FFRPRN-NH2 [Agonist F, Ac-FFRPRN-CONH2]", "values": [{"measurement": "% Activity", "setting": "Table 8, HEK-hR2, binding", "value": 12, "unit": "%"}, {"measurement": "IC50", "setting": "Table 8, HEK-hR2, binding", "value": "> 1000", "unit": "nM"}]}, {"molecule": "FALFRPRN-NH2 [Agonist N]", "values": [{"measurement": "% Activity", "setting": "Table 9, HEK-hR2, binding", "value": 100, "unit": "%"}]}]}
